Data published in the supplement of paper PMC10307832.

Tests used:
Experiment in all cases: relative viability (nuclei count vs DMSO), 5 days (fraction); higher = more cells survive
CUDC-101 = compound: C#Cc1cccc(Nc2ncnc3cc(OC)c(OCCCCCCC(=O)NO)cc23)c1 [CUDC-101]
How it was run: (§1)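 Following overnight incubation at 37 °C, lung cancer cell lines in 1536-well plates were pinned with five library-drug doses (not always all listed) in √10 steps on vehicle-anchored plates. The cells then spent 5 days without medium change before a combined fix, permeabilisation and Hoechst stain, 4× imaging and MetaXpress nuclear counts. Viability is the treated-to-vehicle ratio of nuclei, taken as the median across plates. Only plates with control CV below 25% and at least one doubling passed.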

NVP-TAE684 = compound: COc1cc(N2CCC(N3CCN(C)CC3)CC2)ccc1Nc1ncc(Cl)c(Nc2ccccc2S(=O)(=O)C(C)C)n1 [NVP-TAE684]
How it was run: as §1

Vandetanib = compound: COc1cc2/c(=N/c3ccc(Br)cc3F)nc[nH]c2cc1OCC1CCN(C)CC1 [Vandetanib]
How it was run: as §1

Cell Line | relative viability (CUDC-101; 0.01 µM) | relative viability (CUDC-101; 0.03162 µM) | relative viability (CUDC-101; 0.1 µM) | relative viability (CUDC-101; 0.3162 µM) | relative viability (CUDC-101; 1 µM) | relative viability (NVP-TAE684; 0.2 µM) | relative viability (NVP-TAE684; 0.6325 µM) | relative viability (NVP-TAE684; 2 µM) | relative viability (Vandetanib; 0.02 µM) | relative viability (Vandetanib; 0.06325 µM) | relative viability (Vandetanib; 0.2 µM) | relative viability (Vandetanib; 0.6325 µM) | relative viability (Vandetanib; 2 µM)
COR-L 105 | 0.951 | 1.01 | 0.815 | 0.906 | 0.482 | 1.03 | 0.68 | 0.452 | 0.936 | 0.875 | 0.911 | 0.641 | 0.457
CAL-12T | 1.16 | 1.03 | 0.993 | 1.05 | 0.951 | 0.904 | 0.956 | 0.466 | 1.07 | 0.909 | 0.954 | 0.885 | 0.729
A-427 | 1.02 | 0.978 | 0.949 | 0.932 | 0.738 | 1.11 | 0.847 | 0.863 | 0.955 | 0.963 | 0.953 | 0.98 | 0.96
NCI-H1975 | 0.996 | 0.917 | 0.934 | 1.03 | 0.91 | 0.974 | 0.926 | 0.608 | 0.931 | 0.888 | 0.871 | 0.997 | 0.805
NCI-H1993 | 1.04 | 0.916 | 0.833 | 0.95 | 0.664 | 0.813 | 0.885 | 0.703 | 1 | 0.922 | 0.944 | 0.871 | 0.754
NCI-H2023 | 1.02 | 0.884 | 0.962 | 1.15 | 0.87 | 1.02 | 0.756 | 0.265 | 0.909 | 0.947 | 1.02 | 0.917 | 0.936
201T | 0.984 | 0.97 | 0.964 | 1.03 | 0.829 | 1.05 | 0.958 | 0.875 | 0.951 | 0.951 | 1.01 | 0.934 | 0.941
LK-2 | 1.09 | 0.978 | 0.948 | 0.885 | 0.546 | 1.09 | 0.924 | 0.356 | 0.97 | 0.969 | 0.966 | 1.06 | 0.815
SW 1573 | 1.16 | 0.976 | 1.09 | 1.07 | 0.734 | 0.948 | 1.02 | 0.645 | 0.941 | 0.972 | 0.92 | 0.979 | 0.983
NCI-H647 | 1.08 | 0.899 | 1.04 | 0.987 | 0.801 | 0.924 | 1.01 | 0.723 | 0.965 | 0.946 | 0.968 | 0.933 | 0.872
HCC-78 | 1.01 | 0.918 | 0.954 | 0.809 | 0.416 | 0.824 | 0.658 | 0.495 | 1.02 | 0.841 | 0.958 | 0.974 | 0.853
NCI-H727 | 0.954 | 0.869 | 1.04 | 0.827 | 0.629 | 0.806 | 0.91 | 0.515 | 0.894 | 0.809 | 0.906 | 0.796 | 0.681
SW 900 | 0.927 | 0.881 | 0.803 | 0.878 | 0.624 | 0.96 | 0.754 | 0.776 | 0.898 | 0.887 | 0.65 | 0.93 | 0.775
BEN | 1.11 | 0.833 | 1.06 | 0.856 | 0.708 | 0.933 | 0.73 | 0.876 | 0.941 | 0.916 | 0.886 | 0.933 | 0.988
NCI-H650 | 1.13 | 1.02 | 1.14 | 0.98 | 0.849 | 1.01 | 0.662 | 0.622 | 1.02 | 1 | 0.907 | 1.06 | 0.403
NCI-H441 | 1.04 | 1.09 | 0.981 | 1.13 | 0.844 | 0.898 | 1.15 | 0.587 | 1.03 | 0.948 | 0.983 | 1.15 | 0.939
NCI-H522 | 0.879 | 1.09 | 1.01 | 0.979 | 0.743 | 0.953 | 0.874 | 0.923 | 0.915 | 1.03 | 0.91 | 0.933 | 0.97
NCI-H1793 | 0.95 | 0.707 | 0.825 | 0.92 | 0.613 | 0.826 | 0.875 | 0.816 | 1.01 | 0.821 | 0.833 | 0.765 | 0.781
IA-LM | 1.01 | 0.861 | 1.06 | 0.879 | 0.697 | 0.712 | 0.885 | 0.75 | 0.996 | 0.895 | 0.946 | 1.09 | 1.15
NCI-H1915 | 0.981 | 1.03 | 0.956 | 0.936 | 0.793 | 1.02 | 1.02 | 0.949 | 0.956 | 0.984 | 1.01 | 0.97 | 0.985
HCC-366 | 1.03 | 0.997 | 1.01 | 1.03 | 0.931 | 1.01 | 0.979 | 1.07 | 0.966 | 1.01 | 1.03 | 1.01 | 1.02
NCI-H1792 | 0.928 | 0.896 | 0.853 | 1.04 | 0.809 | 0.844 | 0.708 | 0.594 | 0.878 | 0.829 | 0.974 | 0.858 | 0.874
LCLC-103H | 0.987 | 1.01 | 1.06 | 1.05 | 0.926 | 1.08 | 0.956 | 0.938 | 0.959 | 0.92 | 1.05 | 0.899 | 0.931
SK-LU-1 | 1.19 | 0.988 | 1.07 | 0.963 | 0.87 | 1.12 | 0.962 | 0.733 | 1.01 | 0.791 | 1.02 | 1.07 | 0.984
ABC-1 | 0.95 | 0.978 | 0.938 | 0.812 | 0.453 | 0.969 | 0.624 | 0.537 | 0.827 | 0.917 | 0.844 | 0.908 | 0.628
NCI-H1666 | 1.04 | 0.92 | 0.992 | 1.05 | 0.858 | 0.922 | 0.933 | 0.812 | 0.991 | 0.932 | 0.891 | 1.01 | 0.918
COR-L23 | 1.11 | 0.99 | 1.05 | 0.974 | 0.641 | 0.972 | 1 | 0.481 | 0.974 | 0.93 | 1.02 | 1.08 | 1.06
NCI-H460 | 1 | 0.902 | 0.977 | 1.01 | 0.996 | 1.08 | 1.02 | – | 0.964 | 0.992 | 1.02 | 1 | 0.963
